Measurements reported in ChEMBL document CHEMBL5518228, “DNA Interaction and Cleavage Modes of Anthraquinone-Fused Enediynes: A Study on Tiancimycins, Yangpumicins, and Their Semisynthetic Analogues” (J Med Chem, 2024).
The source made the active and inactive calls. The calls are words filed in the database; no cut-off is given here.

Assays:
[1] = tested on: Supercoiled DNA; experiment: Induction of supercoiled pBR322 DNA (unknown origin) cleavage at 50 uM incubated for 1 hr in presence of DTT under pH 7.4 condition by agarose gel electrophoresis analysis; type: nucleic-acid assay
[2] = Toxicity in BALB/c mouse xenografted with human KPL-4 cells assessed as pathological damage in spleen at 0.05 mg/kg,iv administrated once per week for 2 weeks by H and E staining based analysis; type: organism-based; settings: in vivo, 336 h
[3] = tested on: Supercoiled DNA; experiment: Induction of supercoiled pBR322 DNA (unknown origin) cleavage at 50 uM incubated for 1 hr in presence of bleomycin by agarose gel electrophoresis analysis; type: nucleic-acid assay
[4] = tested on: A549; experiment: Cytotoxicity against human A549 cells incubated for 72 hrs by CCK-8 assay; type: functional, cell-based; settings: A549, 72 h
[5] = tested on: Supercoiled DNA; experiment: Induction of supercoiled pBR322 DNA (unknown origin) cleavage at 50 uM incubated for 1 hr in presence of bleomycin and ferrous ion by agarose gel electrophoresis analysis; type: nucleic-acid assay
[6] = tested on: Supercoiled DNA; experiment: Induction of supercoiled pBR322 DNA (unknown origin) cleavage at 50 uM incubated for 1 hr in presence of GSH by agarose gel electrophoresis analysis; type: nucleic-acid assay
[7] = Toxicity in BALB/c mouse xenografted with human KPL-4 cells assessed as pathological damage in liver at 0.05 mg/kg,iv administrated once per week for 2 weeks by H and E staining based analysis; type: organism-based; settings: in vivo, 336 h
[8] = tested on: Supercoiled DNA; experiment: Induction of supercoiled pBR322 DNA (unknown origin) cleavage at 50 uM incubated for 1 hr in presence of adriamycin by agarose gel electrophoresis analysis; type: nucleic-acid assay
[9] = Toxicity in BALB/c mouse xenografted with human KPL-4 cells assessed as pathological damage in liver at 0.2 mg/kg,iv administrated once per week for 2 weeks by H and E staining based analysis; type: organism-based; settings: in vivo, 336 h
[10] = tested on: KPL-4; experiment: Antitumor activity against human KPL-4 cells xenografted with BALB/c mouse assessed as reduction in tumor mass at 0.05 mg/kg,iv administrated once per week for 2 weeks; type: functional, organism-based
[11] = Cytotoxicity against human NCM460 cells incubated for 72 hrs by CCK-8 assay; type: toxicity, cell-based
[12] = tested on: Supercoiled DNA; experiment: Induction of supercoiled pBR322 DNA (unknown origin) cleavage at 50 uM incubated for 1 hr in presence of actinomycin D by agarose gel electrophoresis analysis; type: nucleic-acid assay
[13] = tested on: Supercoiled DNA; experiment: Induction of supercoiled pBR322 DNA (unknown origin) cleavage at 50 uM incubated for 1 hr in presence of catalase under pH 7.4 condition by agarose gel electrophoresis analysis; type: nucleic-acid assay
[14] = tested on: Calf thymus DNA; experiment: Binding affinity to calf thymus DNA assessed as DNA insertion by measuring change in gibbs free energy in presence of triggered form of compound by fluorescence spectroscopic analysis; type: nucleic-acid assay; settings: Bos taurus
[15] = Toxicity in BALB/c mouse xenografted with human KPL-4 cells assessed as pathological damage in kidney at 0.05 mg/kg,iv administrated once per week for 2 weeks by H and E staining based analysis; type: organism-based; settings: in vivo, 336 h
[16] = tested on: Supercoiled DNA; experiment: Induction of supercoiled pBR322 DNA (unknown origin) cleavage at 50 uM incubated for 1 hr under pH 5.5 to 9.5 condition by agarose gel electrophoresis analysis; type: nucleic-acid assay
[17] = tested on: Supercoiled DNA; experiment: Induction of supercoiled pBR322 DNA (unknown origin) cleavage assessed as relaxation of supercoiled plasmid incubated for 1 hr in presence of DTT by SYBR I Green staining based agarose gel electrophoresis analysis; type: nucleic-acid assay
[18] = tested on: KPL-4; experiment: Antitumor activity against human KPL-4 cells xenografted with BALB/c mouse assessed as reduction in tumor mass at 0.2 mg/kg,iv administrated once per week for 2 weeks; type: functional, organism-based
[19] = tested on: Supercoiled DNA; experiment: Induction of supercoiled pBR322 DNA (unknown origin) cleavage at 50 uM incubated for 1 hr under pH 5.5 to 6.5 condition by agarose gel electrophoresis analysis; type: nucleic-acid assay
[20] = tested on: Calf thymus DNA; experiment: Binding affinity to calf thymus DNA assessed as change in gibbs free energy in presence of ethidium bromide by competitive binding based fluorescence spectroscopic analysis; type: nucleic-acid assay; settings: Bos taurus
[21] = tested on: Supercoiled DNA; experiment: Induction of supercoiled pBR322 DNA (unknown origin) cleavage at 50 uM incubated for 1 hr in presence of NADPH by agarose gel electrophoresis analysis; type: nucleic-acid assay
[22] = Cytotoxicity against human HUVEC cells incubated for 72 hrs by CCK-8 assay; type: toxicity, cell-based
[23] = tested on: Supercoiled DNA; experiment: Induction of supercoiled pBR322 DNA (unknown origin) cleavage at 50 uM incubated for 1 hr in presence of DTT by agarose gel electrophoresis analysis; type: nucleic-acid assay
[24] = tested on: Supercoiled DNA; experiment: Induction of supercoiled pBR322 DNA (unknown origin) cleavage at 50 uM incubated for 1 hr in presence of pyridine under pH 7.4 condition by agarose gel electrophoresis analysis; type: nucleic-acid assay
[25] = Cytotoxicity against human KPL-4 cells incubated for 72 hrs by CCK-8 assay; type: functional, cell-based; settings: KPL4, 72 h
[26] = Toxicity in BALB/c mouse xenografted with human KPL-4 cells assessed as pathological damage in lung at 0.05 mg/kg,iv administrated once per week for 2 weeks by H and E staining based analysis; type: organism-based; settings: in vivo, 336 h
[27] = Toxicity in BALB/c mouse xenografted with human KPL-4 cells assessed as pathological damage in lung at 0.2 mg/kg,iv administrated once per week for 2 weeks by H and E staining based analysis; type: organism-based; settings: in vivo, 336 h
[28] = Toxicity in BALB/c mouse xenografted with human KPL-4 cells assessed as pathological damage in kidney at 0.2 mg/kg,iv administrated once per week for 2 weeks by H and E staining based analysis; type: organism-based; settings: in vivo, 336 h
[29] = Toxicity in BALB/c mouse xenografted with human KPL-4 cells assessed as pathological damage in heart at 0.05 mg/kg,iv administrated once per week for 2 weeks by H and E staining based analysis; type: organism-based; settings: in vivo, 336 h
[30] = Toxicity in BALB/c mouse xenografted with human KPL-4 cells assessed as pathological damage in heart at 0.2 mg/kg,iv administrated once per week for 2 weeks by H and E staining based analysis; type: organism-based; settings: in vivo, 336 h
[31] = tested on: DNA; experiment: Induction of duplex DNA (unknown origin) cleavage assessed as DNA cleaved fragments at AT-rich region at 1 mM incubated for 6 hr in presence of DTT by agarose gel electrophoresis analysis; type: nucleic-acid assay
[32] = tested on: Jurkat; experiment: Cytotoxicity against human Jurkat cells incubated for 72 hrs by CCK-8 assay; type: functional, cell-based
[33] = Toxicity in BALB/c mouse xenografted with human KPL-4 cells assessed as pathological damage in spleen at 0.2 mg/kg,iv administrated once per week for 2 weeks by H and E staining based analysis; type: organism-based; settings: in vivo, 336 h
[34] = tested on: Calf thymus DNA; experiment: Binding affinity to calf thymus DNA assessed as DNA insertion by measuring change in gibbs free energy by fluorescence spectroscopic analysis; type: nucleic-acid assay; settings: Bos taurus
[35] = Toxicity in BALB/c mouse xenografted with human KPL-4 cells assessed as body weight loss at 0.2 mg/kg,iv administrated once per week for 2 weeks; type: organism-based; settings: in vivo, 336 h
[36] = tested on: Caco-2; experiment: Cytotoxicity against human Caco-2 cells incubated for 72 hrs by CCK-8 assay; type: functional, cell-based; settings: Caco-2, 72 h
[37] = tested on: Supercoiled DNA; experiment: Induction of supercoiled pBR322 DNA (unknown origin) cleavage at 100 nM incubated for 1 hr in presence of actinomycin D by agarose gel electrophoresis analysis; type: nucleic-acid assay
[38] = tested on: Supercoiled DNA; experiment: Induction of supercoiled pBR322 DNA (unknown origin) cleavage at 0.5 uM incubated for 1 hr in presence of catalase under pH 7.4 condition by agarose gel electrophoresis analysis; type: nucleic-acid assay
[39] = Toxicity in BALB/c mouse xenografted with human KPL-4 cells assessed as body weight loss at 0.05 mg/kg,iv administrated once per week for 2 weeks; type: organism-based; settings: in vivo, 336 h
[40] = tested on: DNA; experiment: Induction of duplex DNA (unknown origin) cleavage assessed as DNA cleaved fragments at AT-rich region at 100 uM incubated for 6 hr in presence of DTT by agarose gel electrophoresis analysis; type: nucleic-acid assay
[41] = tested on: Supercoiled DNA; experiment: Induction of supercoiled pBR322 DNA (unknown origin) cleavage at 100 nM incubated for 1 hr in presence of 10 uM of actinomycin D by agarose gel electrophoresis analysis; type: nucleic-acid assay
[42] = tested on: Supercoiled DNA; experiment: Induction of supercoiled pBR322 DNA (unknown origin) cleavage at 100 nM incubated for 1 hr in presence of NADPH by agarose gel electrophoresis analysis; type: nucleic-acid assay
[43] = tested on: Supercoiled DNA; experiment: Induction of supercoiled pBR322 DNA (unknown origin) cleavage at 0.5 uM incubated for 1 hr in presence of mannitol under pH 7.4 condition by agarose gel electrophoresis analysis; type: nucleic-acid assay
[44] = tested on: Supercoiled DNA; experiment: Induction of supercoiled pBR322 DNA (unknown origin) cleavage at 100 nM incubated for 1 hr in presence of 10 uM of adriamycin by agarose gel electrophoresis analysis; type: nucleic-acid assay
[45] = tested on: Supercoiled DNA; experiment: Induction of supercoiled pBR322 DNA (unknown origin) cleavage at 0.5 uM incubated for 1 hr in presence of ethanol under pH 7.4 condition by agarose gel electrophoresis analysis; type: nucleic-acid assay
[46] = tested on: Supercoiled DNA; experiment: Induction of supercoiled pBR322 DNA (unknown origin) cleavage at 0.5 uM incubated for 1 hr in presence of methanol under pH 7.4 condition by agarose gel electrophoresis analysis; type: nucleic-acid assay
[47] = tested on: Supercoiled DNA; experiment: Induction of supercoiled pBR322 DNA (unknown origin) cleavage at 100 nM incubated for 1 hr in presence of bleomycin and ferrous ion by agarose gel electrophoresis analysis; type: nucleic-acid assay
[48] = tested on: Supercoiled DNA; experiment: Induction of supercoiled pBR322 DNA (unknown origin) cleavage at 0.5 uM incubated for 1 hr under pH 5.5 to 9.5 condition by agarose gel electrophoresis analysis; type: nucleic-acid assay
[49] = tested on: Supercoiled DNA; experiment: Induction of supercoiled pBR322 DNA (unknown origin) cleavage at 0.5 uM incubated for 1 hr in presence of pyridine under pH 7.4 condition by agarose gel electrophoresis analysis; type: nucleic-acid assay
[50] = tested on: Supercoiled DNA; experiment: Induction of supercoiled pBR322 DNA (unknown origin) cleavage at 100 nM incubated for 1 hr in presence of adriamycin by agarose gel electrophoresis analysis; type: nucleic-acid assay
[51] = tested on: Supercoiled DNA; experiment: Induction of supercoiled pBR322 DNA (unknown origin) cleavage at 100 nM incubated for 1 hr in presence of bleomycin by agarose gel electrophoresis analysis; type: nucleic-acid assay
[52] = tested on: Supercoiled DNA; experiment: Induction of supercoiled pBR322 DNA (unknown origin) cleavage at 100 nM incubated for 1 hr in presence of DTT by agarose gel electrophoresis analysis; type: nucleic-acid assay

COc1ccc2c(c1OC)C(=O)c1c3c(cc(O)c1C2=O)[C@@]12O[C@@]1([C@@H](C)O)[C@H](C#C/C=C\C#C[C@H]2O)N3
Activity [1]: inactive
Activity [2]: Non-Toxic
Activity [3]: Active
IC50 [4]: 1.3 nM
Activity [5]: Active
Activity [6]: inactive
Activity [7]: Non-Toxic
Activity [8]: inactive
Activity [9]: Non-Toxic
Activity [10]: Active
IC50 at 72 h [11]: 6 nM
Activity [12]: inactive
Activity [13]: inactive
deltaG [14]: -18.1 kcal/mol
Activity [15]: Non-Toxic
Activity [16]: Active
EC50 [17]: 17.3 nM
Activity [18]: Active
Activity [19]: inactive
deltaG [20]: -7.98 kcal/mol
Activity [21]: inactive
IC50 at 72 h [22]: 6.8 nM
Activity [23]: Active
Activity [24]: inactive
IC50 [25]: 0.1 nM
Activity [26]: Non-Toxic
Activity [27]: Non-Toxic
Activity [28]: Non-Toxic
Activity [29]: Non-Toxic
Activity [30]: Non-Toxic
Activity [31]: inactive
IC50 [32]: 0.1 nM
Activity [33]: Non-Toxic
deltaG [34]: -23.8 kcal/mol
Activity [35]: Non-Toxic
IC50 [36]: 37.9 nM

COc1ccc2c(c1O)C(=O)c1c3c(cc(O)c1C2=O)[C@@]12O[C@@]1([C@@H](C)O)[C@H](C#C/C=C\C#C[C@H]2O)N3
Activity [37]: inactive
IC50 [4]: 0.04 nM
Activity [38]: Active
IC50 at 72 h [11]: 0.2 nM
deltaG [14]: -17.8 kcal/mol
EC50 [17]: 38.9 nM
Activity [39]: Toxic
Activity [40]: Active
deltaG [20]: -8.26 kcal/mol
Activity [41]: inactive
Activity [42]: inactive
Activity [43]: Active
Activity [44]: inactive
Activity [45]: Active
IC50 at 72 h [22]: 0.2 nM
Activity [46]: Active
IC50 [25]: 0.02 nM
Activity [47]: Active
Activity [48]: Active
Activity [49]: Active
IC50 [32]: 0.05 nM
deltaG [34]: -20.5 kcal/mol
Activity [50]: inactive
Activity [51]: Active
Activity [52]: Active
IC50 [36]: 0.4 nM
